For 32 molecules, IC50 results are on record in patent US8426437B2, “Pyrroloquinoline derivatives and their use as protein kinases inhibitors” (Pierre Fabre Medicament, priority 2005, dated 2013).

pIC50: −log10 of the molar value. Counter-ions that a name gives are not always drawn.

T1 sequence (P07949 29-1114): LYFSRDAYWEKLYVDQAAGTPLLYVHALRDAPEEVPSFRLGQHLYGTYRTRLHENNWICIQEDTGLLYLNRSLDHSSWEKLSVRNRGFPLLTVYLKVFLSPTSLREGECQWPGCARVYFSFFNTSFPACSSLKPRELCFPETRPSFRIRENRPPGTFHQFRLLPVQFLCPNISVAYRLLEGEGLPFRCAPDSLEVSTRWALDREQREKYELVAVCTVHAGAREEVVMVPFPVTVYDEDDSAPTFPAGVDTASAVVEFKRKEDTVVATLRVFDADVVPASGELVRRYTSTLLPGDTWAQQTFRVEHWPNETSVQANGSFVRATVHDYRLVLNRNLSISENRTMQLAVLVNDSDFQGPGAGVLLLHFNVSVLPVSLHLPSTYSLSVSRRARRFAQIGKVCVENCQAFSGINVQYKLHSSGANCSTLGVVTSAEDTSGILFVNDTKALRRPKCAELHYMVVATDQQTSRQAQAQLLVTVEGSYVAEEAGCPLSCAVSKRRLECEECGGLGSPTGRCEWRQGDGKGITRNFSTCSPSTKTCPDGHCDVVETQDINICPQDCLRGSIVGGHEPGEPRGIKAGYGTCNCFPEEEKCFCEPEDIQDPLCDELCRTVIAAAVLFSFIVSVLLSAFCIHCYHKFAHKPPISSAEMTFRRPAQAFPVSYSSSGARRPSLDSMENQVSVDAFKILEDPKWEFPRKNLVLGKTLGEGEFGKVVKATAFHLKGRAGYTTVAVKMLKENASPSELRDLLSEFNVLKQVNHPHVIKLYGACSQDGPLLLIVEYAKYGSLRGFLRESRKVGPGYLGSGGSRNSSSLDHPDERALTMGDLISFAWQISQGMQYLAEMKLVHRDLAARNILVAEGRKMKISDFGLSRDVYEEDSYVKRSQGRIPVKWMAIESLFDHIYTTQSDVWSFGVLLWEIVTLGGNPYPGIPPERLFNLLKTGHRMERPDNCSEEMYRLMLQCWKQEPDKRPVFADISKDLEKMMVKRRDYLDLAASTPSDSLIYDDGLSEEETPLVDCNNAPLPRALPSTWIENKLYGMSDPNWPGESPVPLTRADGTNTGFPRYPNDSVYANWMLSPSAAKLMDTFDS

The test has as its target T1, RET (Homo sapiens, UniProt P07949).
T1 construct: purchased Upstate 14-570MG
The test is described as follows: Inhibition of RET kinase activity, recombinant RET method (Kinase-Glo). It counts as biochemical. The settings on record: RET 2 μg/ml, poly-EY4 substrate, 20 μM ATP, two hours at 30° C. The protocol:
The inhibition of the kinase activity of the compounds of the invention is assessed by measuring their IC50 on RET.
where: • Y is the value of the luminescence • X is the logarithm of the concentration of the compound • Bottom is the minimum Y value • Top is the maximum Y value • LogIC50 is the value of X when Y is 50% from Top—Bottom.
The quantity of RET required is 2 μg/ml.
The following buffer is used for dilution of RET: 20 mM MOPS/NaOH pH7.0, 1 mM EDTA, 5% glycerol, 0.01% Brij35 (Sigma B4184), 0.1% 2-mercaptoethanol, 1 mg/ml BSA (Sigma A3059-10G).
The dilution of the compounds of the invention is distributed so as to obtain a scale of final concentrations between 10 nM and 30 μM.
After incubation of the reaction mixture for two hours at 30° C., the level of ATP that remains is assayed using the Kinase-Glo Luminescent Kinase Assay (Promega #V6712) according to the conditions recommended by the supplier. The luminescence induced is read in a plate reader (Envision-Perkin Elmer).
In the case of `CCOC(=O)c1c[nH]c2c(=O)[nH]c3ccc(-c4ccccc4NS(C)(=O)=O)cc3c12` [Compound 232, 8-(2-Methanesulfonylaminophenyl)-4-oxo-4,5-dihydro-3-pyrrolo[2,3-c]quinoline-1-ethyl carboxylate], the pIC50 is 6.00 to 7.00.
For `CC(C)COC(=O)c1c[nH]c2c(=O)[nH]c3ccc(-c4cccc(S(C)(=O)=O)c4)cc3c12` [Compound 255, 8-(3-Methanesulfonyl-phenyl)-4-oxo-4,5-dihydro-3H-pyrrolo[2,3-c]quinoline-1-isobutyl carboxylate] the value was 5.00 to 6.00; for `CCOC(=O)c1c[nH]c2c(=O)[nH]c3ccc(CCc4ccccc4)cc3c12` [Compound 207, 4-Oxo-8-phenethyl-4,5-dihydro-3H-pyrrolo[2,3-c]quinoline-1-ethyl carboxylate], 6.00 to 7.00.
The value for `CCOC(=O)c1c[nH]c2c(=O)[nH]c3ccc(-c4cccc5ccccc45)cc3c12` [Compound 249, 8-Naphthalen-1-yl-4-oxo-4,5-dihydro-3H-pyrrolo[2,3-c]quinoline-1-ethyl carboxylate] was 6.00 to 7.00; that for `CCOC(=O)c1c[nH]c2c(=O)[nH]c3ccc(NS(=O)(=O)Cc4ccccc4)cc3c12` [Compound 39, 4-Oxo-8-phenylmethanesulfonylamino-4,5-dihydro-3H-pyrrolo[2,3-c]quinoline-1-ethyl carboxylate] was 6.00 to 7.00.
For `CCCOC(=O)c1c[nH]c2c(=O)[nH]c3ccc(S(=O)(=O)N(CC)[C@H]4CCN(C)C4)cc3c12` [Compound 161, (S)-8-[Ethyl-(1-methyl-pyrrolidin-3-yl)-sulfamoyl]-4-oxo-4,5-dihydro-3H-pyrrolo[2,3-c]quinoline-1-propyl carboxylate] the value was > 7.00.
On to `CCOC(=O)c1c[nH]c2c(=O)[nH]c3ccc(S(=O)(=O)Cc4ccccc4)cc3c12` [Compound 35, 4-Oxo-8-phenylmethanesulfonyl-4,5-dihydro-3H-pyrrolo[2,3-c]quinoline-1-ethyl carboxylate], for which the negative logarithm of the IC50 (pIC50) was > 7.00.
For `CCCOC(=O)c1c[nH]c2c(=O)[nH]c3cc(F)c(S(=O)(=O)N(C)CCN(C)C)cc3c12` [Compound 184, 8-[(2-Dimethylamino-ethyl)-methyl-sulfamoyl]-7-fluoro-4-oxo-4,5-dihydro-3H-pyrrolo[2,3-c]quinoline-1-propyl carboxylate] the value was > 7.00.
On to `CCCOC(=O)c1c[nH]c2c(=O)[nH]c3ccc(S(=O)(=O)N4CC[C@H](NC(=O)OC(C)(C)C)C4)cc3c12` [Compound 164, (S)-8-(3-tert-Butoxycarbonylamino-pyrrolidine-1-sulfonyl)-4-oxo-4,5-dihydro-3H-pyrrolo[2,3-c]quinoline-1-propyl carboxylate], for which the pIC50 is 5.00 to 6.00.
For `CCOC(=O)c1c[nH]c2c(=O)[nH]c3ccc(S(=O)(=O)Nc4ccc(F)cc4C)cc3c12` [Compound 17, 8-(4-Fluoro-2-methyl-phenylsulfamoyl)-4-oxo-4,5-dihydro-3H-pyrrolo[2,3-c]quinoline-1-ethyl carboxylate], the negative logarithm of the IC50 (pIC50) is > 7.00.
The value for `C#CCN(CCO)S(=O)(=O)c1ccc2[nH]c(=O)c3[nH]cc(C(=O)OCCC)c3c2c1` [Compound 175, 8-[(2-Hydroxy-ethyl)-prop-2-ynyl-sulfamoyl]-4-oxo-4,5-dihydro-3H-pyrrolo[2,3-c]quinoline-1-propyl carboxylate] was 6.00 to 7.00; that for `CCCOC(=O)c1c[nH]c2c(=O)[nH]c3ccc(S(=O)(=O)N(C)CC4OCCO4)cc3c12` [Compound 129, 8-[1,3]Dioxolan-2-ylmethyl-methyl-sulfamoyl)-4-oxo-4,5-dihydro-3H-pyrrolo[2,3-c]quinoline-1-propyl carboxylate] was 6.00 to 7.00.
For `CN(CC(N)=O)S(=O)(=O)c1ccc2[nH]c(=O)c3[nH]cc(C(=O)O)c3c2c1` [Compound 178, 8-(Carbamoylmethyl-methyl-sulfamoyl)-4-oxo-4,5-dihydro-3H-pyrrolo[2,3-c]quinoline-1-carboxylic acid] the value was 5.00 to 6.00.
The value for `CCCOC(=O)c1c[nH]c2c(=O)[nH]c3ccc(S(=O)(=O)N(CCO)C4CC4)cc3c12` [Compound 174, 8-[Cyclopropyl-(2-hydroxy-ethyl)-sulfamoyl]-4-oxo-4,5-dihydro-3H-pyrrolo[2,3-c]quinoline-1-propyl carboxylate] was > 7.00.
For `CNC(=O)c1c[nH]c2c(=O)[nH]c3ccccc3c12` [Compound 88, N-(Methyl)-4-oxo-4,5-dihydro-3H-pyrrolo[2,3-c]quinoline-1-carboxamide], the pIC50 is 4.00 to 5.00.
For `CCOC(=O)c1c[nH]c2c(=O)[nH]c3cc(OC)ccc3c12` [Compound 213, 7-Methoxy-4-oxo-4,5-dihydro-3H-pyrrolo[2,3-c]quinoline-1-ethyl carboxylate] the value was 5.00 to 6.00.
Turning to `NC(=O)c1c[nH]c2c(=O)[nH]c3ccccc3c12` [Compound 90, 4-Oxo-4,5-dihydro-3H-pyrrolo[2,3-c]quinoline-1-carboxamide], the pIC50 is 4.00 to 5.00.
For `CCOC(=O)c1c[nH]c2c(=O)[nH]c3ccc(S(=O)(=O)NC4CC5CCC(C4)N5)cc3c12` (centres unmarked) [Compound 122, 8-(8-Aza-bicyclo[3.2.1]oct-3-ylsulfamoyl)-4-oxo-4,5-dihydro-3H-pyrrolo[2,3-c]quinoline-1-ethyl carboxylate] the value was > 7.00; for `CCCOC(=O)c1c[nH]c2c(=O)[nH]c3ccc(S(=O)(=O)N(CC)[C@H]4CCNC4)cc3c12` [Compound 160, (S)-8-(Ethyl-pyrrolidin-3-yl-sulfamoyl)-4-oxo-4,5-dihydro-3H-pyrrolo[2,3-c]quinoline-1-propyl carboxylate hydrochloride], > 7.00.
The value for `CC(C)COC(=O)c1c[nH]c2c(=O)[nH]c3ccc(I)cc3c12` [Compound 212, 8-Iodo-4-oxo-4,5-dihydro-3H-pyrrolo[2,3-c]quinoline-1-isobutyl carboxylate] was 5.00 to 6.00; that for `CN(c1ccc(F)cc1)S(=O)(=O)c1ccc2[nH]c(=O)c3[nH]cc(C(=O)OCCCN)c3c2c1` [Compound 107, Trifluoroacetate of 8-[(4-fluorophenyl)-methyl-sulfamoyl]-4-oxo-4,5-dihydro-3H-pyrrolo[2,3-c]quinoline-1-3-aminopropyl carboxylate] was 4.00 to 5.00.
Take `CCCOC(=O)c1c[nH]c2c(=O)[nH]c3ccc(S(=O)(=O)N4CCCC(C(N)=O)C4)cc3c12` (centres unmarked) [Compound 179, 8-(3-Carbamoyl-piperidine-1-sulfonyl)-4-oxo-4,5-dihydro-3H-pyrrolo[2,3-c]quinoline-1-propyl carboxylate]: the pIC50 is 6.00 to 7.00.
For `CCOC(=O)c1c[nH]c2c(=O)[nH]c3ccc(NS(=O)(=O)c4ccc(OC)cc4)cc3c12` [Compound 50, 8-(4-Methoxy-benzenesulfonylamino)-4-oxo-4,5-dihydro-3H-pyrrolo[2,3-c]quinoline-1-ethyl carboxylate] the value was 5.00 to 6.00; for `CCCOC(=O)c1c[nH]c2c(=O)[nH]c3ccc(S(=O)(=O)N(C[C@@H](C)NC(=O)OC(C)(C)C)C4CC4)cc3c12` [Compound 154, (R)-8-[(2-tert-Butoxycarbonylamino-propyl)-cyclopropyl-sulfamoyl]-4-oxo-4,5-dihydro-3H-pyrrolo[2,3-c]quinoline-1-propyl carboxylate], 5.00 to 6.00; for `CCOC(=O)c1c[nH]c2c(=O)[nH]c3ccc(NS(C)(=O)=O)cc3c12` [Compound 38, 8-Methanesulfonylamino-4-oxo-4,5-dihydro-3H-pyrrolo[2,3-c]quinoline-1-ethyl carboxylate], 6.00 to 7.00.
The value for `CCOC(=O)c1ccc(NS(=O)(=O)c2ccc3[nH]c(=O)c4[nH]cc(C(=O)OCC)c4c3c2)cc1` [Compound 14, 8-(4-Ethoxycarbonyl-phenylsulfamoyl)-4-oxo-4,5-dihydro-3H-pyrrolo[2,3-c]quinoline-1-ethyl carboxylate] was 5.00 to 6.00; that for `CCCOC(=O)c1c[nH]c2c(=O)[nH]c3ccc(S(=O)(=O)N(C)C4CCOCC4)cc3c12` [Compound 133, 8-[Methyl-(tetrahydro-pyran-4-yl)-sulfamoyl]-4-oxo-4,5-dihydro-3H-pyrrolo[2,3-c]quinoline-1-propyl carboxylate] was > 7.00.
For `CCCOC(=O)c1c[nH]c2c(=O)[nH]c3ccc(S(=O)(=O)N(C)CC#N)cc3c12` [Compound 128, 8-(Cyanomethyl-methyl-sulfamoyl)-4-oxo-4,5-dihydro-3H-pyrrolo[2,3-c]quinoline-1-propyl carboxylate] the value was 6.00 to 7.00; for `CN(C)C(=O)c1c[nH]c2c(=O)[nH]c3ccccc3c12` [Compound 89, N,N-(Dimethyl)-4-oxo-4,5-dihydro-3H-pyrrolo[2,3-c]quinoline-1-carboxamide], 4.00 to 5.00.
Turning to `CCOC(=O)c1c[nH]c2c(=O)[nH]c3ccc(S(=O)(=O)N(C)C)cc3c12` [Compound 26, 8-Dimethylsulfamoyl-4-oxo-4,5-dihydro-3H-pyrrolo[2,3-c]quinoline-1-ethyl carboxylate], the pIC50 was 6.00 to 7.00.
For `NC(=O)C1CCCN(S(=O)(=O)c2ccc3[nH]c(=O)c4[nH]cc(C(=O)O)c4c3c2)C1` (centres unmarked) [Compound 180, 8-(3-Carbamoyl-piperidine-1-sulfonyl)-4-oxo-4,5-dihydro-3H-pyrrolo[2,3-c]quinoline-1-carboxylic acid] the value was 4.00 to 5.00; for `CCOC(=O)c1c[nH]c2c(=O)[nH]c3ccc(C#Cc4ccccn4)cc3c12` [Compound 202, 4-Oxo-8 pyridin-2-ylethynyl-4,5-dihydro-3H-pyrrolo[2,3-c]quinoline-1-ethyl carboxylate], 5.00 to 6.00.
